Experimental data published in US7589174B2, “GRP94-based compositions and methods of use thereof” (The Children's Hospital of Philadelphia, priority 2003, dated 2009).
Like-named read-outs stand apart in the source and are kept apart here.

How the values were obtained:
[1] = biological target: T1, GRP94 (Mus musculus, UniProt P08113); assay: Solid phase 96-well plate assay of peptide binding by recombinant GRP94 N-terminal fragments; set-up: His6 tagged N355, comprising of amino acids 34-355 of GRP94; made in house; host or cells: E. coli M15; species or system murine
[2] = test system: WT ES cells; conditions: 1 mM EGTA, FIG. 14E-F
[3] = test system: grp94-/- ES cells; conditions: 1 mM EGTA, FIG. 14E-F
[4] = biological target: GRP94 (Homo sapiens, UniProt P14625); assay: GRP94 binding of antigenic peptides (Table 3)
[5] = biological target: T1, GRP94; set-up: a truncated version of GRP94, containing amino acids 1-355; made in house; host or cells: insect cells; conditions: full-length GRP94, ref [14]; cited from earlier work
[6] = test system: GRP94; conditions: vast molar excess of peptide, 10 min 50° C. treatment of the protein
[7] = test system: GRP94; assay: Solid phase 96-well plate assay of peptide binding by recombinant GRP94 N-terminal fragments; set-up: species or system murine
[8] = test system: radicicol-binding pocket of GRP94; assay: Radicicol binding judged by conformational change on blue native gel electrophoresis; set-up: species or system murine; conditions: 300 μM radicicol or DMSO
[9] = test system: tumors; conditions: vaccinated mice, Blachere et al. 1997; cited from earlier work
[10] = test system: purified mouse dendritic cells; assay: Binding and uptake of GRP94 N-terminal domain by dendritic cells; type: cell-based; conditions: bound at 40° C., warmed to 37° C., into endosomal vesicles, FIG. 16
[11] = antigenic peptides that can be loaded on GRP94

Sequence of GRP94 (Homo sapiens, UniProt P14625) (P14625 22-803, species assumed): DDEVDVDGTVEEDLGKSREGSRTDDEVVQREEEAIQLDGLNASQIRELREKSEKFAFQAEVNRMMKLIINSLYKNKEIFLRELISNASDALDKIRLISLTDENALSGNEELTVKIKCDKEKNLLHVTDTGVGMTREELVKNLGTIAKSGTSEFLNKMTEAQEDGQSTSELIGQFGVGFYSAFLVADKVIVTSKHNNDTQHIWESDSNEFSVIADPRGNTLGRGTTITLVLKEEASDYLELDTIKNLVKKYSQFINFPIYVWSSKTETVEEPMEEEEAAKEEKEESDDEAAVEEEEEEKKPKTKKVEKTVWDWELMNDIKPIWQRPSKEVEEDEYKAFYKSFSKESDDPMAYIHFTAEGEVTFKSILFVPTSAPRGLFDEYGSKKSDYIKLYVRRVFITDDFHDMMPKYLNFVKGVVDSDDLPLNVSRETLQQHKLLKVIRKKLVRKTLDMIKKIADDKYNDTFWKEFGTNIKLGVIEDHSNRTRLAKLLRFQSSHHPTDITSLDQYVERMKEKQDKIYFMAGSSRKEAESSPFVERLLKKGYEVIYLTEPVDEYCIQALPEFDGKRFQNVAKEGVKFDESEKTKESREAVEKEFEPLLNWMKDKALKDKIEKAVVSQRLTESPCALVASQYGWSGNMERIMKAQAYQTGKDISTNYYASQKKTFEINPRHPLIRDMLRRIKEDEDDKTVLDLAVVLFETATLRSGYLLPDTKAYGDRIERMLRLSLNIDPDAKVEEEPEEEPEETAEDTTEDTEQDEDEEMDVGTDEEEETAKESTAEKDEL

CCOC(=O)OC(=O)OCC [DEPC, Diethyl pyrocarbonate]
Effect of histidine modification on peptide-binding activity of N34-355 ([1]; His6 tag cleaved, peptide A-coated plates, 0.7 μg protein per well, FIG. 6C): abolished

O=C(O)CN(CCOCCOCCN(CC(=O)O)CC(=O)O)CC(=O)O [EGTA]
Growth under Ca++-chelating conditions, WT cells [2]: can grow for 5 days | Growth under Ca++-chelating conditions, -/- cells [3]: cannot grow

NO [Hydroxylamine]
Effect of histidine modification on peptide-binding activity of N34-355 [1]: restored the activity

c1c[nH]cn1 [imidazole]
IC50 ([1]; N34-355 binding to peptide A, FIG. 6B, read-out: Imidazole concentration that reduced peptide binding by half): 6 mM

FLWGPRALV [MAGE 3]
GRP94 binding [4, 11]: yes

Glucose Regulated Protein 94 [GRP94]
Fraction of the protein shown to bind peptides [5]: about 1% | Fraction of the protein that can be loaded with peptide [6]: up to 85%

KRQIYTDLEMNRLGK [PepA]
Binder or non-binder of GRP94 in the peptide binding assay [1]: binder

RAHYNIVTF (RAH)
GRP94 binding [4]: yes, weak

RGYVYQGL [VSV8]
GRP94 binding [4]: yes | Binder or non-binder of GRP94 in the peptide binding assay [1]: binder

SIINFEKL [OVA 257-264]
GRP94 binding [4, 11]: yes

B1: H125D: N34-355 with His125 mutated to Asp (protein, UniProt P14625 34-355, looked up, variant H125D)
chain: DLGKSREGSRTDDEVVQREEEAIQLDGLNASQIRELREKSEKFAFQAEVNRMMKLIINSLYKNKEIFLRELISNASDALDKIRLISLTDENALSGNEELTVKIKCDKEKNLLDVTDTGVGMTREELVKNLGTIAKSGTSEFLNKMTEAQEDGQSTSELIGQFGVGFYSAFLVADKVIVTSKHNNDTQHIWESDSNEFSVIADPRGNTLGRGTTITLVLKEEASDYLELDTIKNLVKKYSQFINFPIYVWSSKTETVEEPMEEEEAAKEEKEESDDEAAVEEEEEEKKPKTKKVEKTVWDWELMNDIKPIWQRPSKEVEEDEY
modifications: fragment 34-355 His6 tag, factor Xa site
notes: N34-355 with His125 mutated to Asp
Peptide binding activity ([7]; peptide A-coated plates, 0.7 or 2 μg protein, FIG. 7A): almost no peptide binding activity | Radicicol binding (conformational change, native gel mobility, 9G10 epitope) [8]: retained its ability to bind the inhibitor radicicol

B2: GRP94 bound to tumor peptides: GRP94 complexed with tumor peptides, used to vaccinate mice (Srivastava's lab) (protein, UniProt P08113 22-802, looked up)
Endoplasmin: DDEVDVDGTVEEDLGKSREGSRTDDEVVQREEEAIQLDGLNASQIRELREKSEKFAFQAEVNRMMKLIINSLYKNKEIFLRELISNASDALDKIRLISLTDENALAGNEELTVKIKCDKEKNLLHVTDTGVGMTREELVKNLGTIAKSGTSEFLNKMTEAQEDGQSTSELIGQFGVGFYSAFLVADKVIVTSKHNNDTQHIWESDSNEFSVIADPRGNTLGRGTTITLVLKEEASDYLELDTIKNLVRKYSQFINFPIYVWSSKTETVEEPLEEDEAAKEEKEESDDEAAVEEEEEEKKPKTKKVEKTVWDWELMNDIKPIWQRPSKEVEEDEYKAFYKSFSKESDDPMAYIHFTAEGEVTFKSILFVPTSAPRGLFDEYGSKKSDYIKLYVRRVFITDDFHDMMPKYLNFVKGVVDSDDLPLNVSRETLQQHKLLKVIRKKLVRKTLDMIKKIADEKYNDTFWKEFGTNIKLGVIEDHSNRTRLAKLLRFQSSHHSTDITSLDQYVERMKEKQDKIYFMAGSSRKEAESSPFVERLLKKGYEVIYLTEPVDEYCIQALPEFDGKRFQNVAKEGVKFDESEKTKESREATEKEFEPLLNWMKDKALKDKIEKAVVSQRLTESPCALVASQYGWSGNMERIMKAQAYQTGKDISTNYYASQKKTFEINPRHPLIRDMLRRIKEDEDDKTVMDLAVVLFETATLRSGYLLPDTKAYGDRIERMLRLSLNIDPEAQVEEEPEEEPEDTSEDAEDSEQDEGEEMDAGTEEEEEETEKESTEKDEL
modifications: complexed with tumor peptides
Improvement of T cell responses on tumor challenge compared to control mice [9]: 10-200 fold

B3: N34-355: Recombinant GRP94 fragment, amino acids 34-355, N-terminal His6 tag and factor Xa site, expressed in E. coli (protein)
chain: PYNGTGSAIQLDGLNASQIRELREKSEKFAFQAEVNRMMKLIINSLYKNKEIFLRELISNASDALDKIRLISLTDENALSGNEELTVKIKCDKEKNLLHVTDTGVGMTREELVKNLGTIAKSGTSEFLNKMTEAQEDGQSTSELIGQFGVGFYSAFLVADKVIVTSKHNNDTQHIWESDSNEFSVIADPRGNTLGRGTTITLVLKEEASDYLELDTIKNLVKKYSQFINFPIYVWSSKTETVEEPMEEEEAAKEEKEESDDEAAVEEEEEEKKPKTKKVEKTVWDWELMNDIKPIWQRPSKEVEEDEYKAFYKSFSKESDDPMAYIHFT
modifications: left off: small tags and cut ends
notes: Recombinant GRP94 fragment, amino acids 34-355, N-terminal His6 tag and factor Xa site, expressed in E. coli
Uptake by dendritic cells [10]: internalized | Inhibition of peptide binding activity by pre-treatment with radicicol [7]: inhibited significantly | Binding of VSV8 peptide (dose binding curve) ([1]; VSV8-coated plates, compared with N1-355, FIG. 1B): binding curve very similar to that of N1-355
